Measurements from patent US20240116882A1, “NOVEL BENZOTRIAZOLE DERIVATIVE HAVING INHIBITORY ACTIVITY AGAINST ECTONUCLEOTIDE PYROPHOSPHATASE-PHOSPHODIESTERASE, AND USE THEREOF” (TXINNO BIOSCIENCE INC., priority 2021, published 2024).
Where a name gives a salt, the structure may show the parent alone.

The molecules below were run against T1, human recombinant ENPP1 enzymes (Homo sapiens, UniProt P22413) (assay: ENPP1 Enzyme Assay with cGAMP Substrate (AMP-Glo)). Conditions: human recombinant ENPP1, cGAMP 5 μM, 37° C. 90 minutes, AMP-Glo luminescence; read-out: Enzymatic activity (IC50).
T1 construct: purchased R & D systems
T1 sequence (P22413 1-925): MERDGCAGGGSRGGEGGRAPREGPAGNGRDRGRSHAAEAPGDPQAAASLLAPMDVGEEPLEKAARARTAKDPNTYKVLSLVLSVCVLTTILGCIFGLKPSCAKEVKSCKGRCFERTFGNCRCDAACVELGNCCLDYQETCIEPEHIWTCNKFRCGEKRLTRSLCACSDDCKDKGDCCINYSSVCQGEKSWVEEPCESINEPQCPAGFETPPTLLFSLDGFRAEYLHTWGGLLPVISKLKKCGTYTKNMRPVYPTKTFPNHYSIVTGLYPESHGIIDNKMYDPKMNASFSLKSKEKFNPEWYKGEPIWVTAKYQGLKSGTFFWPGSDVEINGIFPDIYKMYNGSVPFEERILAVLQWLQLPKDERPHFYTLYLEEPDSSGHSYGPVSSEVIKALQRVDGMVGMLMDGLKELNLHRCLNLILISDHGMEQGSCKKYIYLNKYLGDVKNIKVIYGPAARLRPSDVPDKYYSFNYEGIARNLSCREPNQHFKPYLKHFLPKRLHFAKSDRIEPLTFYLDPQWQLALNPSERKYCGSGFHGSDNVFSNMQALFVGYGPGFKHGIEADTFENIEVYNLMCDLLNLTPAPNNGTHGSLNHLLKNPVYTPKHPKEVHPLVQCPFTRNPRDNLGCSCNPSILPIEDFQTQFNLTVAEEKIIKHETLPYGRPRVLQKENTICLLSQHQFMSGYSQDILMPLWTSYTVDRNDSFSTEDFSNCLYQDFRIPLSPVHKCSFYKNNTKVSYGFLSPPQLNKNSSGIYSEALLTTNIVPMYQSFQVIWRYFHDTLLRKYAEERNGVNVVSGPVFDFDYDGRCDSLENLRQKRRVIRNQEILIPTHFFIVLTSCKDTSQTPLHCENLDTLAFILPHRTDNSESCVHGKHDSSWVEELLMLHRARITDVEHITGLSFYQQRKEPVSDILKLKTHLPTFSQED
Type: biochemical
Procedure: ENPP1 hydrolyzes nucleotides or nucleotide derivatives to produce nucleoside-5′-monophosphate and pyrophosphate. In addition, ENPP1 hydrolyzes 2′,3′-cGAMP to produce 5′-adenosine monophosphate (AMP) and 5′-guanosine monophosphate (GMP). AMP produced from the reaction is measured using the AMP-Glo® kit (Promega). The AMP-Glo® kit contains two reagents. The first reagent terminates the AMP-producing enzymatic reaction, removes ATP and converts the produced AMP into ADP. The second reagent converts ADP into ATP which is used to generate luminescence in the luciferase reaction. The amount of luminescence measured is proportional to the amount of AMP produced by ENPP1.
The final reaction solution contains 50 mM Tris (pH 8.5) buffer, 250 mM NaCl, 0.5 mM CaCl2), 1 μM ZnCl2, 5% glycerol and 1% DMSO. Serially diluted ENPP1 inhibitors (typically in the range of 10 μM to 0.5 nM) were pre-stored with human recombinant ENPP1 enzymes (R & D systems) at 3 ng/reaction and room temperature (RT) for 5 to 10 minutes. The reaction was initiated by addition of cGAMP (at a final concentration of 5 μM) and reacted at 37° C. for 90 minutes. At the end of the reaction, 10 μl of the AMP-Glo first reagent was added to stop the reaction and the result was stored at room temperature for 1 hour. After storage, 20 μl of an AMP detection solution (a mixture of AMP-Glo II reagent and Kinase-Glo at a ratio of 1:100) was added and stored at room temperature for 1 hour. Luminescence signals were measured using a Victor® plate reader (Perkin Elmer). The maximal activity control (containing enzymes and substrates in the presence of 1% DMSO; MAX) and the minimal activity control (containing substrates and 1% DMSO; MIN) were evaluated simultaneously. In each experiment, serially diluted reference ENPP1 inhibitors were tested as well. IC50, indicating % residual activity versus compound concentration was determined by fitting inhibition curves using the 3-parameter analysis of GraphPad Prism® software. Serially diluted samples of one compound were tested two or more times and an average IC50 of each compound was calculated.

Q: For `COc1ccc2c(c1)nnn2C1CCNCC1` [Example 1, 5-methoxy-1-(piperidin-4-yl)-1H-benzo[d][1,2,3]triazole Hydrochloride], which IC50 is on record?
A: Its IC50 is > 10 µM.

Q: Which IC50 does the source give for `COc1ccc2c(c1)nnn2C1CCC(CN)CC1` (stereo not shown) [Example 2] here?
A: The IC50 was > 10 µM.

Q: How did the IC50 turn out when `COc1ccc2c(c1)nnn2CC1CCNCC1` [Example 3, 5-methoxy-1-(piperidin-4-ylmethyl)-1H-benzo[d][1,2,3]triazole] was run?
A: Its IC50 is 1 to 10 µM.

Q: Which IC50 does the source give for `COc1ccc2c(c1)nnn2-c1ccc(N)cc1` [Example 4, 4-(5-methoxy-1H-benzo[d][1,2,3]triazol-1-yl)aniline Hydrochloride] here?
A: Its IC50 is 1 to 10 µM.

Q: Which IC50 does the source give for `NCc1ccc(-n2nnc3ccccc32)cc1` [Example 5, 4-(1H-benzo[d][1,2,3]triazol-1-yl)phenyl)methanamine Hydrochloride] here?
A: Its IC50 is < 1 µM.

Q: How did the IC50 turn out when `COc1cccc2c1nnn2-c1ccc(CN)cc1` [Example 6, 4-(4-methoxy-1H-benzo[d][1,2,3]triazol-1-yl)phenyl)methanamine Hydrochloride] was run?
A: Its IC50 is > 10 µM.

Q: How did the IC50 turn out when `COc1ccc2nnn(-c3ccc(CN)cc3)c2c1` [Example 7, 4-(6-methoxy-1H-benzo[d][1,2,3]triazol-1-yl)phenyl)methanamine Hydrochloride] was run?
A: Its IC50 is > 10 µM.

Q: `COc1cccc2nnn(-c3ccc(CN)cc3)c12` [Example 8, 4-(7-methoxy-1H-benzo[d][1,2,3]triazol-1-yl)phenyl)methanamine Hydrochloride] was tested. Which IC50 did it give?
A: The IC50 was > 10 µM.

Q: For `COc1cc(OC)c2nnn(-c3ccc(CN)cc3)c2c1` [Example 9, 4-(4,6-dimethoxy-1H-benzo[d][1,2,3]triazol-1-yl)phenyl)methanamine Hydrochloride], which IC50 is on record?
A: The IC50 was 1 to 10 µM.

Q: With `COc1cc2nnn(-c3ccc(CN)cc3)c2cc1OC` [Example 10, 4-(5,6-dimethoxy-1H-benzo[d][1,2,3]triazol-1-yl)phenyl)methanamine Hydrochloride] as the molecule, how does the IC50 read?
A: Its IC50 is 1 to 10 µM.

Q: `COc1ccc2c(c1)nnn2-c1cccc(CCN)c1` [Example 11, 2-(3-(5-methoxy-1H-benzo[d][1,2,3]triazol-1-yl)phenyl)ethan-1-amine Hydrochloride] was tested. Which IC50 did it give?
A: The IC50 was > 10 µM.

Q: For `CNCc1ccc(-n2nnc3cc(OC)ccc32)cc1` [Example 12, 1-(4-(5-methoxy-1H-benzo[d][1,2,3]triazol-1-yl)phenyl)-N-methylmethanamine Hydrochloride], which IC50 is on record?
A: Its IC50 is > 10 µM.

Q: `COc1ccc2c(c1)nnn2-c1ccc(CNC2CC2)cc1` [Example 13, N-(4-(5-methoxy-1H-benzo[d][1,2,3]triazol-1-yl)-benzyl)cyclopropanamine Hydrochloride] was tested. Which IC50 did it give?
A: Its IC50 is > 10 µM.

Q: Which IC50 does the source give for `COc1ccc2c(c1)nnn2-c1ccc([C@H](C)N)cc1` [Example 14, (S)-1-(4-(5-methoxy-1H-benzo[d][1,2,3]triazol-1-yl)phenyl)ethan-1-amine Hydrochloride] here?
A: Its IC50 is < 1 µM.

Q: `COc1ccc2c(c1)nnn2-c1ccc(CN)cc1Cl` [Example 15, 3-chloro-4-(5-methoxy-1H-benzo[d][1,2,3]triazol-1-yl)phenyl)methanamine Hydrochloride] was tested. Which IC50 did it give?
A: Its IC50 is < 1 µM.

Q: `COc1ccc2c(c1)nnn2-c1cc(F)c(CN)cc1F` [Example 17] was tested. Which IC50 did it give?
A: Its IC50 is > 10 µM.

Q: `COc1ccc2c(c1)nnn2-c1cc(F)c(CN)c(F)c1` [Example 18] was tested. Which IC50 did it give?
A: Its IC50 is > 10 µM.

Q: How did the IC50 turn out when `CCOc1ccc2c(c1)nnn2-c1ccc(CN)cc1F` [Example 19] was run?
A: Its IC50 is > 10 µM.

Q: Which IC50 does the source give for `CC(C)Oc1ccc2c(c1)nnn2-c1ccc(CN)cc1F` [Example 20] here?
A: Its IC50 is > 10 µM.

Q: `CC(F)(F)c1ccc2c(c1)nnn2-c1ccc(CN)cc1` [Example 21] was tested. Which IC50 did it give?
A: The IC50 was > 10 µM.

Q: Which IC50 does the source give for `CC(F)(F)c1ccc2c(c1)nnn2-c1ccc(CN)cc1F` [Example 22] here?
A: Its IC50 is > 10 µM.

Q: How did the IC50 turn out when `NCc1ccc(-n2nnc3cc(OCF)ccc32)c(F)c1` [Example 23] was run?
A: The IC50 was > 10 µM.

Q: With `NCc1ccc(-n2nnc3cc(OC(F)F)ccc32)c(F)c1` [Example 24] as the molecule, how does the IC50 read?
A: Its IC50 is > 10 µM.

Q: With `COc1ccc2c(c1)nnn2-c1ccc2c(c1)CNCC2` [Example 25, 7-(5-methoxy-1H-benzo[d][1,2,3]triazol-1-yl)-1,2,3,4-tetrahydroisoquinoline Hydrochloride] as the molecule, how does the IC50 read?
A: The IC50 was > 10 µM.

Q: `COc1ccc2c(c1)nnn2-c1cc2c(cc1F)CNCC2` [Example 26, 7-fluoro-6-(5-methoxy-1H-benzo[d][1,2,3]triazol-1-yl)-1,2,3,4-tetrahydroisoquinoline Hydrochloride] was tested. Which IC50 did it give?
A: Its IC50 is > 10 µM.

Q: `COc1ccc2c(c1)nnn2-c1ccc2c(c1)CNCCC2` [Example 27, 8-(5-methoxy-1H-benzo[d][1,2,3]triazol-1-yl)-2,3,4,5-tetrahydro-1H-benzo[c]azepine Hydrochloride] was tested. Which IC50 did it give?
A: Its IC50 is > 10 µM.

Q: `COc1cc2nnn(-c3cc(F)c(CN)cc3F)c2cc1OC` [Example 28] was tested. Which IC50 did it give?
A: Its IC50 is > 10 µM.

Q: `COc1cc2nnn(-c3ccc4c(c3)CNC4)c2cc1OC` [Example 29, 1-(isoindolin-5-yl)-5,6-dimethoxy-1H-benzo[d][1,2,3]triazole Hydrochloride] was tested. Which IC50 did it give?
A: Its IC50 is > 10 µM.

Q: For `COc1ccc2c(c1)nnn2C12CC(CN)(C1)C2` [Example 30], which IC50 is on record?
A: The IC50 was > 10 µM.

Q: How did the IC50 turn out when `COc1ccc2c(c1)nnn2-c1cc(C)sc1CN` [Example 31, 3-(5-methoxy-1H-benzo[d][1,2,3]triazol-1-yl)-5-methylthiophen-2-yl)methanamine Hydrochloride] was run?
A: Its IC50 is > 10 µM.

Q: With `COc1ccc2c(c1)nnn2C1CCC(CNS(N)(=O)=O)C1` (stereo not shown) [Example 41, N-((3-(5-methoxy-1H-benzo[d][1,2,3]triazol-1-yl)cyclopentyl)methyl)sulfamide] as the molecule, how does the IC50 read?
A: Its IC50 is < 1 µM.

Q: For `COc1ccc2c(c1)nnn2C1CCN(S(N)(=O)=O)CC1` [Example 42, 4-(5-methoxy-1H-benzo[d][1,2,3]triazol-1-yl)piperidine-1-sulfonamide], which IC50 is on record?
A: The IC50 was > 10 µM.

Q: For `COc1ccc2c(c1)nnn2C1CCC(CNS(N)(=O)=O)CC1` (stereo not shown) [Example 43, N-((4-(5-methoxy-1H-benzo[d][1,2,3]triazol-1-yl)cyclohexyl)methyl)sulfamide], which IC50 is on record?
A: The IC50 was < 1 µM.

Q: For `COc1ccc2c(c1)nnn2C1CCN(CCS(N)(=O)=O)CC1` [Example 44, 2-(4-(5-methoxy-1H-benzo[d][1,2,3]triazol-1-yl)piperidin-1-yl)ethane-1-sulfonamide], which IC50 is on record?
A: Its IC50 is < 1 µM.

Q: How did the IC50 turn out when `COc1ccc2c(c1)nnn2CC1CCN(S(N)(=O)=O)CC1` [Example 45, 4-((5-methoxy-1H-benzo[d][1,2,3]triazol-1-yl)methyl)piperidine-1-sulfonamide] was run?
A: Its IC50 is < 1 µM.

Q: With `NS(=O)(=O)NCc1ccc(-n2nnc3ccccc32)cc1` [Example 46, N-(4-(1H-benzo[d][1,2,3]triazol-1-yl)benzyl)sulfamide] as the molecule, how does the IC50 read?
A: Its IC50 is 1 to 10 µM.

Q: Which IC50 does the source give for `COc1ccc2c(c1)nnn2-c1cccc(NS(N)(=O)=O)c1` [Example 47, N-(3-(5-methoxy-1H-benzo[d][1,2,3]triazol-1-yl)phenyl)sulfamide] here?
A: The IC50 was 1 to 10 µM.

Q: How did the IC50 turn out when `COc1ccc2c(c1)nnn2-c1ccc(NS(N)(=O)=O)cc1` [Example 48, N-(4-(5-methoxy-1H-benzo[d][1,2,3]triazol-1-yl)phenyl)sulfamide Hydrochloride] was run?
A: Its IC50 is < 1 µM.

Q: `COc1ccc2c(c1)nnn2-c1cccc(CNS(N)(=O)=O)c1` [Example 49, N-(3-(5-methoxy-1H-benzo[d][1,2,3]triazol-1-yl)benzyl)sulfamide] was tested. Which IC50 did it give?
A: Its IC50 is 1 to 10 µM.

Q: With `COc1cccc2c1nnn2-c1ccc(CNS(N)(=O)=O)cc1` [Example 50, N-(4-(4-methoxy-1H-benzo[d][1,2,3]triazol-1-yl)benzyl)sulfamide] as the molecule, how does the IC50 read?
A: Its IC50 is < 1 µM.
